According to patent publication US6518296B1, “Substituted 3-thiocarbamoylpyrazoles” (Bayer Aktiengesellschaft, priority 1998, dated 2003):

Columns and labels:
[1] = test system: green peach aphid (Myzus persicae); assay: Myzus test; format: in vivo; settings: active compound concentration of 0.1%; after 6 days; dipped cabbage leaves
Experimental: Solvent: 7 parts by weight of dimethylformamide
Emulsifier: 1 part by weight of alkylaryl polyglycol ether
To produce a suitable preparation of active compound, 1 part by weight of active compound is mixed with the stated amounts of solvent and emulsifier, and the concentrate is diluted with water to the desired concentration.
Cabbage leaves (Brassica oleracea) which are heavily infested by the green peach aphid (Mycus persicae) are treated by being dipped into the preparation of active compound of the desired concentration.
After the desired period of time, the kill in % is determined. 100% means that all aphids have been killed; 0% means that none of the aphids have been killed.

Lucilia cuprina larvae = assay: Blowfly larvae test/development-inhibitory action; format: in vivo; settings: active compound concentration of 100 ppm, read-out: activity (development-inhibitory action; 100% means that no flies have hatched)
Experimental: Blowfly larvae test/development-inhibitory action
Test animals: Lucilia cuprina larvae
(§1) Solvent: Dimethyl sulphoxide
(§2) 20 mg of active compound are dissolved in 1 ml of dimethyl sulphoxide, while dilute concentrations are prepared by dilution with dist. H2O.
About 20 Lucilia cuprina larvae are introduced into a test tube containing about 1 cm^3 of horse meat and 0.5 ml of the preparation of active compound. After 24 and 48 hours, the activity of the preparation of active compound is determined. The test tubes are transferred into beakers whose bottom is covered with sand. After a further 2 days, the test tubes are removed and the pupae are counted.
The activity of the active compound preparation is assessed by the number of flies which have hatched after 1.5 times the development time of an untreated control. 100% means that no flies have hatched; 0% means that all flies have hatched normally.

[2] = test system: Boophilus microplus resistant/SP-resistant Parkhurst strain; assay: Test with Boophilus microplus resistant/SP-resistant Parkhurst strain (dip test, kill); format: in vivo; settings: active compound concentration of 100 ppm; dipped for 1 minute
Experimental: Test with Boophilus microplus resistant/SP-resistant Parkhurst strain
(§3) Test animals: Adult females which have sucked themselves full
as §1, §2
10 adult Boophilus microplus res. are dipped for 1 minute into the preparation of active compound to be tested. The animals are transferred into plastic beakers and kept in a climatized room, and the kill rate is then determined.
100% means that all ticks have been killed; 0% means that none of the ticks have been killed.

[3] = test system: Boophilus microplus resistant/SP-resistant Parkhurst strain; assay: Test with Boophilus microplus resistant/SP-resistant Parkhurst strain (injection, inhibition of oviposition); format: in vivo; settings: 20 μg/animal; injected into the abdomen; after 7 days
Experimental: Test with Boophilus microplus resistantlSP-resistant Parkhurst strain
as §3, §1
20 mg of active compound are dissolved in 1 ml of dimethyl sulphoxide, while dilute concentrations are prepared by dilution with the same solvent.
The test is carried out in 5 replications. […] of the solutions is injected into the abdomen, the animals are transferred into dishes and kept in a climatized room. After 7 days, the activity control is carried out for inhibition of ovi position. An activity of 100% means that none of the ticks has deposited eggs.

CCSc1c(C(N)=S)nn(-c2c(Cl)cc(C(F)(F)F)cc2Cl)c1N [Preparation Example 1, 5-amino-4-ethylthio-l-(2,6-dichloro-4-trifluoro-methylphenyl)-3-thiocarbamoyl-pyrazole]
kill [1]: 90% | inhibition at 100 ppm (Lucilia cuprina larvae): 100% | activity (kill rate of ticks) [2]: 100% | activity (inhibition of oviposition) [3]: 100% | melting point: 101 °C
